Counter-ions that a name gives are not always drawn.
Experiments:
human TLR7 = target: T1, human TLR7 (Homo sapiens, UniProt Q9NYK1); test: TLR7 inhibition reporter assay (HEK-Blue cells, SEAP reporter, gardiquimod stimulation); type: cell-based; conditions: HEK-Blue cells overexpressing human TLR7, gardiquimod 7.5 μM
T1 construct: host or cells: HEK-Blue cells
T1 sequence (Q9NYK1 27-1049): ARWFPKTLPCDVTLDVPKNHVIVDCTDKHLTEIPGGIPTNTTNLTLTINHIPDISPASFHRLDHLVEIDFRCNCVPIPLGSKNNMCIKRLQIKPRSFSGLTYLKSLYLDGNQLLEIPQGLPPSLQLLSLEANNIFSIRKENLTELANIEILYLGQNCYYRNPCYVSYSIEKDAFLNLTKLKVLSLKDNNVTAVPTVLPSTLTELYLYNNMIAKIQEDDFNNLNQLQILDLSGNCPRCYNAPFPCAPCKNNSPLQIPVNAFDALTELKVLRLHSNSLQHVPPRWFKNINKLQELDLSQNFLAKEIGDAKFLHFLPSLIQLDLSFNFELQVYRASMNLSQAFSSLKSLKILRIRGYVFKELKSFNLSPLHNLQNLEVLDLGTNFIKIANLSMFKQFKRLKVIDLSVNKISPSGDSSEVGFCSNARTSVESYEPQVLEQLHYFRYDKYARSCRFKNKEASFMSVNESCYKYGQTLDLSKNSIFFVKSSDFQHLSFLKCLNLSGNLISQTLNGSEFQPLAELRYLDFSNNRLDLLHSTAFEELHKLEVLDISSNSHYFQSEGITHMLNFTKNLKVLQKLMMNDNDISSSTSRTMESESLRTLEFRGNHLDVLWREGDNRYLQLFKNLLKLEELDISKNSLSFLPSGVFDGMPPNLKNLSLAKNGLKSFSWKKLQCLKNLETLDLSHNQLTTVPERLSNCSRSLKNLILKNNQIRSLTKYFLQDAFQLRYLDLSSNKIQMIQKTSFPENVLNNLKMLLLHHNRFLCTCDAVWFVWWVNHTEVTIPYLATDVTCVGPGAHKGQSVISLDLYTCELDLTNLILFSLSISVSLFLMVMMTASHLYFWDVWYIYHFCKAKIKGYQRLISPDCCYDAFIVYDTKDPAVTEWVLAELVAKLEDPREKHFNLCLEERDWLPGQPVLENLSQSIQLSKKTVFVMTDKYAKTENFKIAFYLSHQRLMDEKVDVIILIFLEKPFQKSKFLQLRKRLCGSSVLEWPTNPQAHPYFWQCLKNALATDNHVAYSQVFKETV
Description: (§1) TLR7/8/9 Inhibition Reporter Assays
Briefly, cells are seeded into Greiner 384 well plates (15000 cells per well for TLR7, 20,000 for TLR8 and 25,000 for TLR9) and then treated with test compounds in DMSO to yield a final dose response concentration range of 0.05 nM-50 μM. […] After a 22 hour incubation at 37° C., 5% CO2, SEAP levels are determined with the addition of HEK-Blue™ Detection reagent (Invivogen), a cell culture medium that allows for detection of SEAP, according to manufacturer's specifications. The percent inhibition is determined as the % reduction in the HEK-Blue signal present in wells treated with agonist plus DMSO alone compared to wells treated with a known inhibitor.

human TLR9 = target: T2, human TLR9 (Homo sapiens, UniProt Q9NR96); test: TLR9 inhibition reporter assay (HEK-Blue cells, SEAP reporter, ODN2006 stimulation); type: cell-based; conditions: HEK-Blue cells overexpressing human TLR9, ODN2006 5 nM
T2 construct: host or cells: HEK-Blue cells
T2 sequence (Q9NR96 26-1032): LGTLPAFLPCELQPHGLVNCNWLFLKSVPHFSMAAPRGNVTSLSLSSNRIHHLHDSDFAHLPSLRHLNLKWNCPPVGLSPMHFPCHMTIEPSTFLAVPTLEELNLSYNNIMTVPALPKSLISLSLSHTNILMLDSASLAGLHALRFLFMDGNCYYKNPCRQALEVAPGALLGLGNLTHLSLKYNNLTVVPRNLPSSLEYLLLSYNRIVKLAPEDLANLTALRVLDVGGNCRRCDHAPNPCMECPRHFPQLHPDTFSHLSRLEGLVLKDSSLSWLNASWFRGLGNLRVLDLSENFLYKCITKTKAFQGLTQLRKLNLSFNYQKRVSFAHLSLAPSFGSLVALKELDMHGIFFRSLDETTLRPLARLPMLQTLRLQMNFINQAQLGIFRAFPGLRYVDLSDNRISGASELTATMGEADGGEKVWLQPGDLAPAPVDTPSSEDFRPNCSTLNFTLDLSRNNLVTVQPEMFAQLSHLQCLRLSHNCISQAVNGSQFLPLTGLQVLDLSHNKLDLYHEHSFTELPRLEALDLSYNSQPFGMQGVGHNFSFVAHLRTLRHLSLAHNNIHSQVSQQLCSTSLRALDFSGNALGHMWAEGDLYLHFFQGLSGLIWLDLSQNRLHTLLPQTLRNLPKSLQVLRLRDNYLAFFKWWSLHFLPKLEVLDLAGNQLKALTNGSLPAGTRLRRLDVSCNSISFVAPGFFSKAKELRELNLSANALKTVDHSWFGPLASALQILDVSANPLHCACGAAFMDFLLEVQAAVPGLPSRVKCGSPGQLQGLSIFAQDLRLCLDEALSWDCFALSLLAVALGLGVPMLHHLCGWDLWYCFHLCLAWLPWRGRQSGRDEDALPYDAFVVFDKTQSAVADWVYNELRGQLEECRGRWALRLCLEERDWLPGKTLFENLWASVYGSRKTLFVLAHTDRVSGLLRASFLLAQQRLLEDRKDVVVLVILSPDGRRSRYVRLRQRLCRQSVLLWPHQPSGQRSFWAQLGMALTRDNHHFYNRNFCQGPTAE
Description: as §1
HEK-Blue™-cells (Invivogen) overexpressing human TLR7, TLR8 or TLR9 receptors were used for screening inhibitors of these receptors using an inducible SEAP (secreted embryonic alkaline phosphatase) reporter gene under the control of the IFN-β minimal promoter fused to five NF-κB and AP-1-binding sites. Briefly, cells are seeded into Greiner 384 well plates (15000 cells per well for TLR7, 20,000 for TLR8 and 25,000 for TLR9) and then treated with test compounds in DMSO to yield a final dose response concentration range of 0.05 nM-50 μM. After a 30 minute compound pre-treatment at room temperature, the cells are then stimulated with a TLR7 ligand (gardiquimod at a final concentration of 7.5 μM), TLR8 ligand (R848 at a final concentration of 15.9 μM) or TLR9 ligand (ODN2006 at a final concentration of 5 nM) to activate NF-κB and AP-1 which induce the production of SEAP. After a 22 hour incubation at 37° C., 5% CO2, SEAP levels are determined with the addition of HEK-Blue™ Detection reagent (Invivogen), a cell culture medium that allows for detection of SEAP, according to manufacturer's specifications. The percent inhibition is determined as the % reduction in the HEK-Blue signal present in wells treated with agonist plus DMSO alone compared to wells treated with a known inhibitor.

Row | IC50 (human TLR7) [µM] | IC50 (human TLR9) [µM] | Compound
1 | 0.3 | 6.44 | CCc1c(-c2ccc(OC)c(OC)c2)[nH]c2ccc(C3CCN(C(=O)CN4CCCN(C(C)=O)CC4)CC3)cc12 [Example 166, 2-(4-acetyl-1,4-diazepan-1-yl)-1-(4-(2-(3,4-dimethoxyphenyl)-3-ethyl-1H-indol-5-yl)piperidin-1-yl)ethan-1-one]
2 | 2.11 | 1.09 | COc1ccc(-c2[nH]c3ccc(C4CCN(Cc5csc(N)n5)CC4)cc3c2C)cc1OC [Example 14, 4-((4-(2-(3,4-dimethoxyphenyl)-3-methyl-1H-indol-5-yl)piperidin-1-yl)methyl)thiazol-2-amine]
3 | 1.59 | 0.555 | COc1ccc(-c2[nH]c3ccc(C4CCN(C5CCN(C6CCC6)CC5)CC4)cc3c2C)cc1OC [Example 61, 5-(1′-cyclobutyl-[1,4′-bipiperidin]-4-yl)-2-(3,4-dimethoxyphenyl)-3-methyl-1H-indole]
4 | 0.559 | 0.382 | CNCCCN1CCC(c2ccc3[nH]c(-c4ccc(OC)c(OC)c4)c(C)c3c2)CC1 [Example 102, 3-(4-(2-(3,4-dimethoxyphenyl)-3-methyl-1H-indol-5-yl)piperidin-1-yl)-N-methylpropan-1-amine]
5 | 1.79 | 0.209 | COc1ccc(-c2[nH]c3ccc(C4CCN(CC5CCCCN5)CC4)cc3c2C)cc1OC (stereo not shown) [Example 101, 2-(3,4-dimethoxyphenyl)-3-methyl-5-(1-(piperidin-2-ylmethyl)piperidin-4-yl)-1H-indole]
6 | 0.25 | 0.319 | COc1ccc(-c2[nH]c3ccc(C4CCN(CCN(C)CC5CC5)CC4)cc3c2C)cc1OC [Example 112, N-(cyclopropylmethyl)-2-(4-(2-(3,4-dimethoxyphenyl)-3-methyl-1H-indol-5-yl)piperidin-1-yl)-N-methylethan-1-amine]
7 | 0.387 | 1.51 | CCN(C)CCN1CCC(c2ccc3[nH]c(-c4ccc(OC)c(OC)c4)c(C)c3c2)CC1 [Example 111, 2-(4-(2-(3,4-dimethoxyphenyl)-3-methyl-1H-indol-5-yl)piperidin-1-yl)-N-ethyl-N-methylethan-1-amine]
8 | 0.144 | 2.1 | CCc1c(-c2ccc(OC)c(OC)c2)[nH]c2ccc(C3CCN(C(=O)CN4CCCC(CO)C4)CC3)cc12 (stereo not shown) [Example 169, 1-(4-(2-(3,4-dimethoxyphenyl)-3-ethyl-1H-indol-5-yl)piperidin-1-yl)-2-(3-(hydroxymethyl)piperidin-1-yl)ethan-1-one]
9 | 2.63 | 1.55 | COc1ccc(-c2[nH]c3ccc(C4CCN(C5CCN(C6COC6)CC5)CC4)cc3c2C)cc1OC [Example 83, 2-(3,4-dimethoxyphenyl)-3-methyl-5-(1′-(oxetan-3-yl)-[1,4′-bipiperidin]-4-yl)-1H-indole]
10 | 0.663 | 0.21 | COc1ccc(-c2[nH]c3ccc(C4CCN(Cc5ccc(OCCCN(C)C)cc5)CC4)cc3c2C)cc1OC [Example 38, 3-(4-((4-(2-(3,4-dimethoxyphenyl)-3-methyl-1H-indol-5-yl)piperidin-1-yl)methyl)phenoxy)-N,N-dimethylpropan-1-amine]
11 | 0.317 | 0.169 | COc1ccc(-c2[nH]c3ccc(C4CCN(C5CCCC(N(C)C)C5)CC4)cc3c2C)cc1OC (stereo not shown) [Example 25, 3-(4-(2-(3,4-dimethoxyphenyl)-3-methyl-1H-indol-5-yl)piperidin-1-yl)-N,N-dimethylcyclohexan-1-amine]
12 | 0.263 | 19.3 | CCc1c(-c2ccc(OC)c(OC)c2)[nH]c2ccc(C3CCN(C(=O)CN4CCN(C(=O)C5CCCO5)CC4)CC3)cc12 (stereo not shown) [Example 172, 1-(4-(2-(3,4-dimethoxyphenyl)-3-ethyl-1H-indol-5-yl)piperidin-1-yl)-2-(4-(tetrahydrofuran-2-carbonyl)piperazin-1-yl)ethan-1-one]
13 | 0.488 | ≥ 50 | CCc1c(-c2ccc(OC)c(OC)c2)[nH]c2ccc(C3CCN(C(=O)CN4CCN(C(C)=O)CC4)CC3)cc12 [Example 171, 2-(4-acetylpiperazin-1-yl)-1-(4-(2-(3,4-dimethoxyphenyl)-3-ethyl-1H-indol-5-yl)piperidin-1-yl)ethan-1-one]
14 | 0.162 | ≥ 50 | COc1ccc(-c2[nH]c3ccc(C4CCN(C(=O)CNCC(F)(F)F)CC4)cc3c2C(C)C)cc1OC [Example 221, 1-(4-(2-(3,4-dimethoxyphenyl)-3-isopropyl-1H-indol-5-yl)piperidin-1-yl)-2-((2,2,2-trifluoroethyl)amino)ethan-1-one]
15 | 0.248 | 4.85 | COc1ccc(-c2[nH]c3ccc(C4CCN(C(=O)CN(C)C)CC4)cc3c2C2CCOCC2)cc1OC [Example 393, 1-(4-(2-(3,4-dimethoxyphenyl)-3-(tetrahydro-2H-pyran-4-yl)-1H-indol-5-yl)piperidin-1-yl)-2-(dimethylamino)ethan-1-one]
16 | 0.082 | 0.79 | COc1ccc(-c2[nH]c3ccc(C4CCN(Cc5ccc(-n6ccnc6)cc5)CC4)cc3c2C(C)C)cc1OC [Example 263, 5-(1-(4-(1H-imidazol-1-yl)benzyl)piperidin-4-yl)-2-(3,4-dimethoxyphenyl)-3-isopropyl-1H-indole]
17 |  | 5.91 | COc1ccc(-c2[nH]c3ccc(C4CCNCC4)cc3c2C)cc1OC [Example 1, 2-(3,4-dimethoxyphenyl)-3-methyl-5-(piperidin-4-yl)-1H-indole hydrochloride]
18 |  | 1.97 | COc1ccc(-c2[nH]c3ccc(C4CCN(Cc5nccn5C)CC4)cc3c2C)cc1OC [Example 16, 2-(3,4-dimethoxyphenyl)-3-methyl-5-(1-((1-methyl-1H-imidazol-2-yl)methyl)piperidin-4-yl)-1H-indole]
